Patent publication US20200319163A1, “METHODS AND COMPOSITIONS OVERCOMING CANCER CELL IMMUNE RESISTANCE” (Georgetown University, priority 2019, published 2020)

System: ADCCR1 cells
Test: ADCC assay (specific lysis by NK92-CD16V effector cells) on ADCC-resistant cells
Format: cell-based, human
Conditions: ADCCR1 pretreated with inhibitor 0.01 to 10 μmol/L for 2 hours; ADCC assay at 4 hours; FIG. 4B, 4C
Description: Inhibitors of histone acetyltransferase C646 (cat. no. S7152), DNA methyltransferase azacytidine (cat. no. S1782), histone demethylase GSK J4 HCL (cat. no. S7070), and HDAC panobinostat (cat. no. S1030) were purchased from Selleck Chemicals. Inhibitors were solubilized in DMSO at […]. Vehicle treatment (DMSO) was used at the highest equivalent v/v used in inhibitor treatments.
ADCC assays were preformed using A431/ADCCS1/ADCCR1 as target cells and NK92-CD16V cells as the effector cells. Target cells are plated at 10,000 cells/well overnight (A431 cells double overnight).

Structure (SMILES): CC1=NN(c2ccc(C(=O)O)cc2)C(=O)/C1=C\c1ccc(-c2cc(C)c(C)cc2[N+](=O)[O-])o1 [C646]
- ADCC resistance / resensitization to ADCC (specific lysis): partially reversed
